Test results published in PubChem BioAssay AID1241 (SRMLSC, 2008).

Assay: NF-kB promoter reporter activators, neuronal cells, dose response, cell-based, SH-SY5Y, luciferase (AID 1241)
Conditions: fold induction
For `Nc1nc(-c2ccccc2)nc2sc3c(c12)CCCC3`, the EC50 was 873 nM. Compound `CCOc1ccc(NC(=O)c2ccco2)c([N+](=O)[O-])c1` has an EC50 of 18900 nM. Compound `Cc1ccc(C(=O)/C=C/Nc2ccccc2C(N)=O)cc1` has an EC50 of 511 nM. In the case of `COc1cccc(/C=C/C(=O)c2ccc[nH]2)c1`, the EC50 is reported as 14900 nM. `Cc1ccc2nc(-c3ccc(NC(=O)COC(=O)c4ccc([N+](=O)[O-])o4)cc3)sc2c1` showed an EC50 of 437 nM. Compound `O=c1oc2ccccc2cc1-c1csc(Nc2ccc(O)cc2)n1` has an EC50 of 3230 nM. In the case of `COc1ccc(-c2csc(-c3ccccc3)n2)c(OC)c1`, the EC50 is reported as 6740 nM. Work on `Cc1ccc(C(=O)Nc2nc3c(s2)CCCC3)o1` yielded an EC50 of 1780 nM. With `Cc1ccc(-c2nc3ccccc3[nH]2)cc1N` the EC50 was 3410 nM. With `Cc1csc(SCc2nnc(-c3ccccc3Br)o2)n1` the EC50 was 4680 nM. Compound `O=C(N=Nc1c(O)[nH]c2ccccc12)c1cccs1` has an EC50 of 1480 nM. Compound `O=[N+]([O-])c1cc(Cl)ccc1-c1nc(-c2ccccc2)no1` has an EC50 of 3200 nM. In the case of `Cc1nc2ccc(-c3nc4ccccc4o3)cc2[nH]1`, the EC50 is reported as 3300 nM. `CC(C)CC(=O)Nc1ccc(-c2cn3ccsc3n2)cc1` gave an EC50 of 8510 nM. `Cc1ccc(N=Nc2c(N)nn(-c3ccccc3)c2N)cc1` gave an EC50 of 10000 nM. For `O=C(Nc1ccc2sccc2c1)c1ccc(Cl)s1`, the EC50 was 511 nM. Work on `COc1ccccc1N1CCN(Cc2ccc(O)c3ncccc23)CC1` yielded an EC50 of 1160 nM. With `O=C(Nc1ccc2c(c1)CCC2)c1ccc(Br)s1` the EC50 was 772 nM. `Cc1ccc(NC(=O)c2ccccc2O)cc1` showed an EC50 of 3230 nM. Compound `Cc1ccc2nc(-c3ccc(NC(=O)COC(=O)c4ccc(Br)o4)cc3)sc2c1` has an EC50 of 485 nM. `O=C(c1cc(-c2cccc(O)c2)on1)N1CCCCC1` gave an EC50 of 5510 nM. With `CCOC(=O)c1sc(NC(=O)Nc2ccc(F)cc2)nc1C` the EC50 was 2670 nM. With `COc1cccc(CNc2cnc3ccccc3c2)c1O` the EC50 was 13900 nM. `Nc1nc(-c2ccc(-c3ccccc3)cc2)cs1` showed an EC50 of 2420 nM. `CC(/C=N/NC(=O)c1ccco1)=C\c1ccccc1` gave an EC50 of 4660 nM. With `O=C(Nc1nc2ccc(F)cc2s1)c1cccs1` the EC50 was 4570 nM. `Clc1ccc(OCc2nc(-c3ccncc3)no2)c(Cl)c1` gave an EC50 of 1120 nM. `Fc1ccccc1Nc1nc2c(s1)CCc1ccccc1-2` showed an EC50 of 3360 nM. `CC(=O)Oc1ccc(Cl)cc1/C=C/c1ccc2ccccc2n1` showed an EC50 of 836 nM. For `O=c1[nH]c(/C=C2\C=Nc3ccccc32)c(O)n1Cc1ccccc1F`, the EC50 was 2540 nM. In the case of `Cc1ccccc1Nc1nc(N)c2ccccc2n1`, the EC50 is reported as 1990 nM. Work on `N#CC1(c2ccc(NC(=O)c3ccccc3F)cc2)CCCC1` yielded an EC50 of 1080 nM. `Cc1ccc(-c2noc(-c3ccccc3F)n2)cc1` showed an EC50 of 6840 nM. In the case of `Cc1ccc(C)c(NC(=S)c2ccccn2)c1`, the EC50 is reported as 6690 nM. With `O=C(Nc1ccc2c(c1)OCCO2)Nc1ccc2c(c1)OCO2` the EC50 was 114 nM. In the case of `COC(=O)c1ccc(NC(=O)C(=O)c2cccn2C)cc1`, the EC50 is reported as 1710 nM. Work on `CCOc1ccc(-c2nc(-c3cccnc3)no2)cc1` yielded an EC50 of 906 nM. `CCCOc1ccc(C(=O)NCCc2ccccc2)cc1` showed an EC50 of 648 nM. Compound `Cc1ccc2nc(-c3ccc(NC(=O)CNC4CC4)cc3)sc2c1` has an EC50 of 1690 nM. With `Oc1cccc(-c2nc3ccccc3s2)c1` the EC50 was 4100 nM. With `Cc1ccsc1/C=N/Nc1nc2ccccc2s1` the EC50 was 803 nM. `O=C(c1cnn(-c2ccc(Cl)cc2)c1)c1ccccc1O` gave an EC50 of 1720 nM. For `CCCCNc1ncnc2c1cnn2-c1ccccc1`, the EC50 was 6070 nM. In the case of `Nc1ccc2nc(SCc3cccc(F)c3)sc2c1`, the EC50 is reported as 3680 nM. For `N#C/C(=N\Nc1cccc(F)c1)C(=N)N1CCCCCC1`, the EC50 was 1640 nM. With `Oc1ccc(-c2csc(Nc3ncccn3)n2)cc1` the EC50 was 3440 nM. In the case of `CCC(=O)Oc1ccc(-c2cnc3ccccc3n2)cc1`, the EC50 is reported as 21200 nM. With `CCCCOc1ccc(-c2csc(N)n2)cc1[N+](=O)[O-]` the EC50 was 14100 nM. `CCOC(=O)c1nn(-c2ccc(Br)cc2)cc1C(=O)c1cccc2ccccc12` gave an EC50 of 3000 nM. In the case of `COC(=O)Cc1ccc2sc(-c3ccccc3)nc2c1`, the EC50 is reported as 702 nM. `O=C(Nc1nc2ccccc2s1)NC1CCCCC1` gave an EC50 of 2420 nM. With `CSc1ccc(/C=C/c2ccc3cccc(O)c3n2)cc1` the EC50 was 2490 nM. In the case of `CCOc1ccc2cc(C#N)c(SCC(=O)OC)nc2c1`, the EC50 is reported as 14500 nM. Work on `Cc1ccnc(NS(=O)(=O)c2ccc(NC(=O)c3ccc([N+](=O)[O-])s3)cc2)n1` yielded an EC50 of 5770 nM. For `Nc1ccc(/C=C/C(=O)c2cccs2)cc1`, the EC50 was 8720 nM. In the case of `Cc1ccsc1/C=C1\CCC(C2CCCC2)C1=O` (stereo unspecified), the EC50 is reported as 5840 nM. Work on `COc1ccc(NC(=O)C2=Cc3ccccc3OC2)cc1` yielded an EC50 of 800 nM. `Cn1c(C(=O)Nc2ccc3c(c2)OCCO3)cc2sccc21` gave an EC50 of 1170 nM. In the case of `COc1ccc2c(c1)OC/C(=C/c1cccs1)C2=O`, the EC50 is reported as 5520 nM. `O=C(Nc1ccc(N2CCCC2)c(Cl)c1)c1cccs1` showed an EC50 of 1510 nM. `Cc1ccc2nc(/C=C/c3cccc(F)c3)ccc2c1` gave an EC50 of 3070 nM. For `O=C(O)c1ccc(N/N=C/c2cn(-c3ccccc3)nc2-c2cccs2)cc1`, the EC50 was 1700 nM. Compound `O=C(Nc1nc2ccccc2s1)c1ccc(F)cc1` has an EC50 of 1200 nM. Work on `O=C(Nc1ccn(Cc2ccccc2)n1)c1cccc(F)c1` yielded an EC50 of 15100 nM. `O=C(Nc1ccc2c(c1)OCO2)c1ccc(Cl)s1` gave an EC50 of 1800 nM. For `O=C(Nc1ccc2c(c1)OCCO2)c1cc2ccccc2o1`, the EC50 was 1120 nM. Compound `O=C(NCCC1=CCCCC1)Nc1ccc2nsnc2c1` has an EC50 of 4770 nM. With `O=C(/C=C/Nc1ccccc1)c1ccccc1` the EC50 was less than 59 nM. With `COc1ccc(-c2cc(-c3ccccc3O)[nH]n2)cc1` the EC50 was 968 nM. Work on `N/C(=N\OC(=O)COc1ccc(Cl)cc1Cl)c1ccccn1` yielded an EC50 of 1190 nM. Work on `Cc1ccc(C(=O)COC(=O)c2cccs2)cc1` yielded an EC50 of 2450 nM. Compound `Cc1ccc2oc(-c3cccc(N)c3)nc2c1` has an EC50 of 660 nM. `Cc1ccsc1C(=O)N/N=C/c1ccc2c(c1)OCO2` gave an EC50 of 1140 nM. For `CNC(=O)Oc1cccc(-c2cn3cc(Cl)ccc3n2)c1`, the EC50 was 1260 nM. Compound `COc1cccc([C@@H]2Oc3ccc(OC)cc3C(=O)[C@H]2O)c1` has an EC50 of 5860 nM. In the case of `CC(/C=N/Nc1nc2ccccc2[nH]1)=C\c1ccccc1`, the EC50 is reported as 4160 nM. In the case of `O=C(Nc1nc2ccccc2s1)c1ccc2c(c1)OCO2`, the EC50 is reported as 138 nM. In the case of `Cc1ccc(-c2nc3ccccc3[nH]2)s1`, the EC50 is reported as 6090 nM. For `Oc1ccc(-c2nnc(-c3ccc(O)cc3)nn2)cc1`, the EC50 was 5890 nM. Compound `O=[N+]([O-])c1ccc(C2Oc3ccccc3C3CC(c4ccccc4)=NN32)s1` (stereo unspecified) has an EC50 of 12200 nM. With `Oc1ccc(N=Nc2n[nH]c(-c3ccccc3)n2)cc1` the EC50 was 3990 nM. Work on `Cc1ccc(CN=C2Nc3ccccc3CS2)cc1` yielded an EC50 of 1190 nM. For `O=C(Nc1nc(-c2ccc3c(c2)OCCO3)cs1)C1CCCC1`, the EC50 was 13700 nM. With `CCOc1ccc2nc(NC(=S)N(C)C)sc2c1` the EC50 was 17300 nM. Work on `O=C(Nc1nc2ccccc2[nH]1)c1cc2ccccc2o1` yielded an EC50 of 1230 nM. For `Nc1ccc(-c2nc3ccc(C(=O)O)cc3s2)cc1`, the EC50 was 146 nM. With `O=C(Nc1ccc2c(c1)CCC2)c1cc2ccccc2o1` the EC50 was 2410 nM. In the case of `Cc1ccc(NC(=O)c2ccccn2)c(Br)c1`, the EC50 is reported as 18900 nM. `O=C(OCC(=O)c1c[nH]c2ccccc12)c1cccc(O)c1` gave an EC50 of 14600 nM. `COCCNC(=O)/C(C#N)=C/c1cc(C)n(-c2ccc(C)cc2)c1C` showed an EC50 of 5600 nM. Compound `Cc1ccc(NC(=O)c2ccccc2)s1` has an EC50 of 6430 nM. For `Cc1ccc2nc(-c3ccc(NC(=O)COC(=O)c4cncc(Br)c4)cc3)sc2c1`, the EC50 was 393 nM. In the case of `CCCCOC(=O)Nc1nc2ccccc2s1`, the EC50 is reported as 3470 nM. `c1ccc(CCNc2ncnc3c2cnn3-c2ccccc2)cc1` showed an EC50 of 27400 nM. `Cc1ccc(/C=N/Nc2nnc(Cl)c3ccccc23)cc1` gave an EC50 of 1530 nM. For `C/C(=N\N1C(=O)c2ccccc2NC1c1ccco1)c1ccccc1O` (stereo unspecified), the EC50 was 2500 nM.
